Assay results from PMC11255275, “Structural insights into the triple agonism at GLP-1R, GIPR and GCGR manifested by retatrutide” (Cell Discovery, 2024).
pEC50: −log10 of the molar value. Read-outs that look alike come from different tables or passages of the source.

Experiments:
GLP-1R mutants [1] = experiment: cAMP accumulation, single-point mutated GLP-1R; format: cell-based, human; details: GLP-1R E138(1.33b)R, relative to WT
Experimental: (§1) HEK-293T cells were maintained at 37°C in 5% CO2 incubator and seeded onto 6-well cell […]
(§2) culture plates before transfection. After overnight culture, the cells were transiently transfected […]
(§3) with various constructs using Lipofectamine 2000 transfection reagent (Invitrogen). After 24 h, […]
(§4) the transfected cells were seeded onto 384-microtiter plates at a density of 3,000 cells per well […]
(§5) in stimulation buffer (HBSS supplemented with 5 mM HEPES, 0.1% (w/v) casein and 0.5 mM […]
(§6) 3-isobutyl-1-methylxanthine). Different concentrations of retatrutide in stimulation buffer were […]
(§7) added, and the stimulation lasted for 40 min. The reaction was stopped by addition of cAMP […]
(§8) detection buffer containing Eu-cAMP tracer and ULight-anti-cAMP. Plates were then incubated for […]
(§9) 60 min at RT. Time-resolved FRET signals were measured at 620 nm and 665 nm, respectively, by […]
(§10) an EnVision multilabel plate reader (PerkinElmer). Data were analyzed in GraphPad PRISM 9.5 […]
(§11) and all values were normalized to that of the wild-type (WT).
(§12) Supplementary Fig. 5 Effects of receptor mutation on retatrutide-induced cAMP […]
(§13) accumulation. a-c, Signaling profiles of GLP-1R (a), GIPR (b) and GCGR (c) mutants. cAMP […]
(§14) accumulation was measured in wild-type (WT) and single-point mutated GLP-1R, GIPR or […]
(§15) GCGR expressing HEK-293T cells. cAMP levels were normalized to the maximum response […]
(§16) of the WT and dose-response curves were analyzed using a three-parameter logistic equation.
(§17) Data were generated and graphed as means ± S.E.M. of at least three independent experiments performed in quadruplicate.
(§18) (1 picture or pasted object on this page, not shown here)
(§19) Supplementary Ta b l e S 5 Effects of the ligand-binding pocket residue mutation on retatrutide- […]
(§20) induced cAMP signaling at GLP-1R, GIPR or GCGR. […]
(§21) cAMP levels were normalized to the maximum response of the wild-type (WT) and dose-response […]
(§22) curves were analyzed using a three-parameter logistic equation to obtain pEC50 and Emax values. The […]
(§23) experiments were carried out independently at least three times. Data shown are means ± S.E.M. One- […]
(§24) way ANOVA was used to determine statistical difference. N.D., values that could not be determined due […]
(§25) to incomplete curve fits. *P< 0.05, **P< 0.01, ***P< 0.001 and ****P<0.0001.

GLP-1R mutants [2] = target: T1, GLP-1R mutants (Homo sapiens, UniProt P43220, W214A); experiment: cAMP accumulation, single-point mutated GLP-1R; format: cell-based; details: GLP-1R W214(ECL1)A; HEK-293T, 40 min, TR-FRET; mean ± S.E.M., n at least 3
T1 construct: expressed in transfected cells; host or cells: HEK-293T
Experimental: as §1, §2, §3, §4, §5, §6, §7, §8, §9, §10, §11, §12, §13, §14, §15, §16, §17, §18, §19, §20, §21, §22, §23, §24, §25

GLP-1R mutants [3] = target: T2, GLP-1R mutants (Homo sapiens, UniProt P43220, Y205A); experiment: cAMP accumulation, single-point mutated GLP-1R; format: cell-based; details: GLP-1R Y205(2.75b)A, HEK-293T, 40 min, TR-FRET, mean ± S.E.M., n at least 3
T2 construct: expressed in transfected cells; host or cells: HEK-293T
Experimental: as §1, §2, §3, §4, §5, §6, §7, §8, §9, §10, §11, §12, §13, §14, §15, §16, §17, §18, §19, §20, §21, §22, §23, §24, §25

GLP-1R mutants [4] = target: T3, GLP-1R mutants (Homo sapiens, UniProt P43220, W39A); experiment: cAMP accumulation, single-point mutated GLP-1R; format: cell-based; details: GLP-1R W39(ECD)A, HEK-293T, 40 min, TR-FRET, mean ± S.E.M., n at least 3
T3 construct: expressed in transfected cells; host or cells: HEK-293T
Experimental: as §1, §2, §3, §4, §5, §6, §7, §8, §9, §10, §11, §12, §13, §14, §15, §16, §17, §18, §19, §20, §21, §22, §23, §24, §25

GLP-1R mutants [5] = target: T4, GLP-1R mutants (Homo sapiens, UniProt P43220, E364A); experiment: cAMP accumulation, single-point mutated GLP-1R; format: cell-based; details: GLP-1R E364(6.53b)A, HEK-293T, 40 min, TR-FRET, mean ± S.E.M., n at least 3
T4 construct: expressed in transfected cells; host or cells: HEK-293T
Experimental: as §1, §2, §3, §4, §5, §6, §7, §8, §9, §10, §11, §12, §13, §14, §15, §16, §17, §18, §19, §20, §21, §22, §23, §24, §25

GLP-1R mutants [6] = target: T5, GLP-1R mutants (Homo sapiens, UniProt P43220, W91A); experiment: cAMP accumulation, single-point mutated GLP-1R; format: cell-based; details: GLP-1R W91(ECD)A, HEK-293T, 40 min, TR-FRET, mean ± S.E.M., n at least 3
T5 construct: expressed in transfected cells; host or cells: HEK-293T
Experimental: as §1, §2, §3, §4, §5, §6, §7, §8, §9, §10, §11, §12, §13, §14, §15, §16, §17, §18, §19, §20, §21, §22, §23, §24, §25

GLP-1R mutants [7] = target: T6, GLP-1R mutants (Homo sapiens, UniProt P43220, E138R); experiment: cAMP accumulation, single-point mutated GLP-1R; format: cell-based; details: GLP-1R E138(1.33b)R; HEK-293T, 40 min, TR-FRET; mean ± S.E.M., n at least 3
T6 construct: expressed in transfected cells; host or cells: HEK-293T
Experimental: as §1, §2, §3, §4, §5, §6, §7, §8, §9, §10, §11, §12, §13, §14, §15, §16, §17, §18, §19, §20, §21, §22, §23, §24, §25

[8] = system: C57/Bl6 diet-induced obese (DIO) mice; details: cited from earlier work
Source text: (§26) The most successful treatments currently available include glucagon-like peptide-1 (GLP-1) receptor agonists (GLP-1RAs), exemplified by semaglutide (approved in 2017, $19.9 billion sales in 2023)[3] and tirzepatide (approved in 2022, $5.3 billion sales in 2023)[4]. […] For humans, events were mild, such as 50 1 ascending (PMID: 4 months ...

[9] = cited from earlier work; for average weight loss: 12 mg dose group
Source text: as §26

GCGR = details: less potent than the endogenous hormone; cited from earlier work
Source text: (§27) The most successful treatments currently available include glucagon-like peptide-1 (GLP-1) receptor agonists (GLP-1RAs), exemplified by semaglutide (approved in 2017, $19.9 billion sales in 2023)[3] and tirzepatide (approved in 2022, $5.3 billion sales in 2023)[4].

GLP-1R = details: GLP-1R, less potent than the endogenous hormone, factor; cited from earlier work
Source text: as §27

GIPR = details: GIPR, more potent than the endogenous hormone by this factor; cited from earlier work
Source text: as §27

[10] = C57/Bl6 DIO mice, ref Coskun T et al (supplement ref 17)
[11] = 12 mg, ref Jastreboff AM et al (supplement ref 19)
[12] = ref Rosenstock J et al (supplement ref 20)

T3 sequence (P43220 24-463 W39A): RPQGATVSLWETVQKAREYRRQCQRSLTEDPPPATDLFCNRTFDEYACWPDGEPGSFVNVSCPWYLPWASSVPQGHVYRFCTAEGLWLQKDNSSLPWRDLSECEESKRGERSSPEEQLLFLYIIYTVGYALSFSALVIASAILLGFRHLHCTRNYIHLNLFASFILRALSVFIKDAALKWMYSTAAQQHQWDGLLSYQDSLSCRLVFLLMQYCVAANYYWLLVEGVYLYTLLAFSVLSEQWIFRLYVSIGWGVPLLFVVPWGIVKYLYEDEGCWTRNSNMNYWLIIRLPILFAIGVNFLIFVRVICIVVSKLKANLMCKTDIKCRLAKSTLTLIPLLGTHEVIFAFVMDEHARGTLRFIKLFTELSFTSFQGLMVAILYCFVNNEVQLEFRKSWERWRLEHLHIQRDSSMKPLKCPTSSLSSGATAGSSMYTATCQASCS
T5 sequence (P43220 24-463 W91A): as the sequence (P43220 24-463 W39A) above, with A16W, W68A counted along it
T6 sequence (P43220 24-463 E138R): as the sequence (P43220 24-463 W39A) above, with A16W, E115R counted along it
T1 sequence (P43220 24-463 W214A): as the sequence (P43220 24-463 W39A) above, with A16W, W191A counted along it
T4 sequence (P43220 24-463 E364A): as the sequence (P43220 24-463 W39A) above, with A16W, E341A counted along it
T2 sequence (P43220 24-463 Y205A): as the sequence (P43220 24-463 W39A) above, with A16W, Y182A counted along it

## CC[C@H](C)[C@H](NC(=O)[C@H](Cc1ccccc1)NC(=O)[C@H](C)NC(=O)C(C)(C)NC(=O)[C@H](CCC(N)=O)NC(=O)[C@H](C)NC(=O)[C@H](CCCCNC(=O)COCCOCCNC(=O)CC[C@H](NC(=O)CCCCCCCCCCCCCCCCCCC(=O)O)C(=O)O)NC(=O)[C@H](CCCCN)NC(=O)[C@H](CC(=O)O)NC(=O)[C@H](CC(C)C)NC(=O)[C@](C)(CC(C)C)NC(=O)[C@@H](NC(=O)[C@H](CO)NC(=O)[C@H](Cc1ccc(O)cc1)NC(=O)[C@H](CC(=O)O)NC(=O)[C@H](CO)NC(=O)[C@@H](NC(=O)[C@H](Cc1ccccc1)NC(=O)[C@@H](NC(=O)CNC(=O)[C@H](CCC(N)=O)NC(=O)C(C)(C)NC(=O)[C@@H](N)Cc1ccc(O)cc1)[C@@H](C)O)[C@@H](C)O)[C@@H](C)CC)C(=O)N[C@@H](CCC(=O)O)C(=O)N[C@@H](Cc1ccc(O)cc1)C(=O)N[C@@H](CC(C)C)C(=O)N[C@@H](CC(C)C)C(=O)N[C@@H](CCC(=O)O)C(=O)NCC(=O)NCC(=O)N1CCC[C@H]1C(=O)N[C@@H](CO)C(=O)N[C@@H](CO)C(=O)NCC(=O)N[C@@H](C)C(=O)N1CCC[C@H]1C(=O)N1CCC[C@H]1C(=O)N1CCC[C@H]1C(=O)N[C@@H](CO)C(N)=O [retatrutide]
GLP-1R mutants [1]
  change of retatrutide potency by mutation: modestly increased
GLP-1R mutants [2]
  pEC50: 11.25
  Emax ± S.E.M. (% WT): 100.98 ± 3.27 % WT
GLP-1R mutants [3]
  Emax ± S.E.M. (% WT): 101.35 ± 4.70 % WT
GLP-1R mutants [3]; **P < 0.01
  pEC50: 10.41
GLP-1R mutants [4]
  Emax ± S.E.M. (% WT): 101.39 ± 3.58 % WT
GLP-1R mutants [4]; **P < 0.01
  pEC50: 10.41
GLP-1R mutants [5]
  Emax ± S.E.M. (% WT): 98.84 ± 4.77 % WT
GLP-1R mutants [5]; ***P < 0.001
  pEC50: 10.39
GLP-1R mutants [6]
  Emax ± S.E.M. (% WT): 102.36 ± 4.73 % WT
GLP-1R mutants [6]; ****P < 0.0001
  pEC50: 10.08
GLP-1R mutants [7]
  pEC50: 11.45
  Emax ± S.E.M. (% WT): 100.84 ± 3.40 % WT
[8]; [10]
  ED50, body weight reduction: 4.73 nmol/kg
  body weight and calorie intake: dose-dependently reduced
[8]; obese mice, due to an increased energy expenditure through GCGR activation
  body weight loss compared with tirzepatide: greater body weight losses in obese mice than tirzepatide
[9]; 8 mg or 12 mg, ref Jastreboff AM et al (supplement ref 19)
  participants with weight reduction of 5% or more: All the participants
[9]; [11]
  participants who lost 20% or more of baseline weight: nearly two thirds
  participants who lost 25% or more of baseline weight: nearly half
  participants who lost 30% or more of baseline weight: a quarter
[9]; 24 weeks
  average weight loss: 17.5%
[9]; 24 weeks, 12-mg group, placebo –1.6%, ref Jastreboff AM et al (supplement ref 19)
  least-squares mean percentage change in body weight: –17.5%
[9]; 24 weeks, combined 4-mg group, placebo –1.6%, ref Jastreboff AM et al (supplement ref 19)
  least-squares mean percentage change in body weight: –12.9%
[9]; 24 weeks, combined 8-mg group, placebo –1.6%, ref Jastreboff AM et al (supplement ref 19)
  least-squares mean percentage change in body weight: –17.3%
[9]; 36 weeks, ref Rosenstock J et al (supplement ref 20)
  participants who lost at least 15% of body weight (up to): Up to 63%
[9]; 48 weeks
  average weight loss: 24.2%
[9]; 48 weeks, 12-mg group, placebo –2.1%, ref Jastreboff AM et al (supplement ref 19)
  least-squares mean percentage change in body weight: –24.2%
[9]; 48 weeks, combined 4-mg group, placebo –2.1%, ref Jastreboff AM et al (supplement ref 19)
  least-squares mean percentage change in body weight: –17.1%
[9]; 48 weeks, combined 8-mg group, placebo –2.1%, ref Jastreboff AM et al (supplement ref 19)
  least-squares mean percentage change in body weight: –22.8%
[9]; dose-dependent, ref Rosenstock J et al (supplement ref 20)
  blood pressure: reduction of blood pressure
[9]; in vivo
  frequency of gastrointestinal events by starting dose: occurred more frequently
  heart rate: Dose-dependent increases
  mitigation of gastrointestinal adverse events by lower starting dose: partially mitigated
  participants with gastrointestinal adverse events: 35%
  safety profile: safety profile comparable to certain approved GLP-1RAs
  severity of most common (gastrointestinal) adverse events: mild to moderate in severity
[9]; phase 2, type 2 diabetes
  glycemic control: significant improvements in glycemic control
  weight reduction: substantial weight reduction
[9]; [12]
  glycemic control: clinically improvements in glycemic control
  non-HDL cholesterol: reduction
  reduction of triglycerides: ~ 35%
GCGR
  potency factor compared to endogenous hormone: 0.3
GLP-1R
  potency factor compared to endogenous hormone: 0.4
GIPR
  potency factor compared to endogenous hormone: 8.9
